Assay results taken from US20040235080A1, “Methods and reagents for detecting endotoxin” (priority 2001, published 2004).

Tests used:
[1] = target: T1, recombinant Factor C (rFC) (Carcinoscorpius rotundicauda, UniProt Q26422); assay: recombinant Factor C (rFC) assay with different detergents and detergent concentrations; type: biochemical; details: for Detergent concentration range for rFC inhibition / Detergent concentration range for rFC enhancing: 1 EU/ml EC-6 endotoxin, DPR-coumarin substrate, data after 30 minutes
T1 construct: made in house; host or cells: Culture supernatant, lot 031901I
T1 sequence (Q26422 26-1019): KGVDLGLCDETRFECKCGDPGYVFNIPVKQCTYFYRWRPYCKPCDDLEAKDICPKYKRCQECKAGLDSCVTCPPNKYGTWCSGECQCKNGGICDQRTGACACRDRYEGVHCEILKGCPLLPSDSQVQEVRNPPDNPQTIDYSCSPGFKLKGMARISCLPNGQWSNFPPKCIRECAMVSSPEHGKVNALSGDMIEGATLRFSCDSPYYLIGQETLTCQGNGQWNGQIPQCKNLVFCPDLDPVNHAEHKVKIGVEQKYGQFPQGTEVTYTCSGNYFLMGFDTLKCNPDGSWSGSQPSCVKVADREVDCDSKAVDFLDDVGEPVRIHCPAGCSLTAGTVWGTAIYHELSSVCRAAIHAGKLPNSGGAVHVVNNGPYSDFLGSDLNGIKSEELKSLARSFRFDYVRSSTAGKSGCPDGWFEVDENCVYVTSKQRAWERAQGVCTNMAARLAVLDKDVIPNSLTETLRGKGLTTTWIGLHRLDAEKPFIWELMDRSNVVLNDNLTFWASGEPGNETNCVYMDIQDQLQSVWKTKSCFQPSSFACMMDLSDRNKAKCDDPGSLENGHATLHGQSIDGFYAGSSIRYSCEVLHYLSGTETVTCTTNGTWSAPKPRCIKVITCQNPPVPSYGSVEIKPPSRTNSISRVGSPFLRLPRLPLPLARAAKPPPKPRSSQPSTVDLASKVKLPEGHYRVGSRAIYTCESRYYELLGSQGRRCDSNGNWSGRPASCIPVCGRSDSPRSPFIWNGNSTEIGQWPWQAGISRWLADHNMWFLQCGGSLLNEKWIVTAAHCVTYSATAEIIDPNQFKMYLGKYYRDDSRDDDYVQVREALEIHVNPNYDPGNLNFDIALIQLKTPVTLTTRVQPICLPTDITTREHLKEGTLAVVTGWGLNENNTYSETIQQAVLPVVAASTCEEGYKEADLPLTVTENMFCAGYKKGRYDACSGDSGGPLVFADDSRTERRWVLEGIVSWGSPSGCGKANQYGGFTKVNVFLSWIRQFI
Description: The recombinant Factor C (rFC) assay was carried out using 20 μl of each detergent (˜10× of final concentration), 150 μl of 1 EU/ml EC-6, 10 μl of rFC supernatant 031901I, 20 μl of 300 mM Tris, pH 8.0, and 20 μl of 0.55 mM DPR-coumarin substrate. The results of the assay were read at 38° C. using a Cytofluor reader set at 390/440 nm, 5 minutes per cycle, for 1 hour. The data were graphed after 30 minutes.

[2] = target: T2, recombinant Carcinoscorpius rotundicauda Factor C (Carcinoscorpius rotundicauda, UniProt Q26422); assay: endotoxin assay of Examples 1 and 13 (two-step and one-step); type: biochemical; details: assay exemplified in Examples 1 and 13
T2 construct: made in house; host or cells: Sf9 insect cells, baculovirus (pFASTBAC1 / bacmid); the secreted protein is used as culture supernatant
T2 sequence (Q26422 26-1019): T1 sequence (Q26422 26-1019)
Description: Endotoxin was pre-incubated with culture medium containing recombinant Carcinoscorpius rotundicauda Factor C obtained from recombinant Factor C-producing Sf9 cells for 1 hour in assay buffer (30 mM Tris, pH 8.0, 30 mM NaCl, 0.3% lactose, and 0.0025% Zwittergent 3-14). The substrate N-t-Boc-Asp(Obzl)-Pro-Arg-7-Amido-4-methyl coumarin (DPR-coumarin) was added to the mixture to a final concentration of […]. The fluorescence generated from the cleavage of the substrate by activated Factor C was measured after 15-20 minutes. Results of a similar assay carried out using the substrate N-t-Boc-Val-Pro-Arg-7-Amido-4-methyl coumarin at a final concentration of 100 mM are shown in FIG. 5.
A one-step endotoxin assay can be carried out in a 96-well plate, using 100 μl each of blank and endotoxin standards. […] The plate is incubated at 37° C. for 1 hour. Excitation and emission are read at 390 and 440 nm, respectively, in a fluorescence microplate reader.

| Molecule | Detergent concentration range for rFC inhibition [1] | width of the enhancing concentration range [1] | Detergent concentration range for rFC enhancing [1] | optimal concentration of the surfactant [2] [%] |
| --- | --- | --- | --- | --- |
| CCCCCCCCCCCCOS(=O)(=O)[O-].[Na+] [SDS, sodium dodecyl sulfate] | >=0.0004% |  |  |  |
| Triton X-100 | >=0.008% | narrow |  |  |
| CCCCCCCC/C=C\CCCCCCCC(=O)OCCOCC(OCCO)C1OCC(OCCO)C1OCCO (centres unmarked) [Tween 80, polyoxyethylene (20) sorbitan monooleate] | >0.25% | wide | 0.001-0.25% |  |
| CCCCCCCCCCCCCC[N+](C)(C)CCCS(=O)(=O)[O-] [Zwittergent 3-14, N-tetradecyl-N,N-dimethyl-3-ammonio-1-propanesulfonate] | >=0.004% | narrow |  | 0.0025 |
| CCCCCCCCS[C@@H]1O[C@H](CO)[C@@H](O)[C@H](O)[C@H]1O [OTG, n-Octyl-beta-D-thioglycopyranoside] | >=0.5% | narrow |  |  |
| CCCCCCCCCCCC(=O)OCCOCCOCCOCCOCCOCCOCCOCCOCCOCCOCCOCCOCCOCCOCCOCCOCCOCCOCCOCCOCC(OCCOCCOCCOCCOCCOCCOCCOCCOCCOCCOCCOCCOCCOCCOCCOCCOCCOCCOCCOCCO)C1OCC(OCCOCCOCCOCCOCCOCCOCCOCCOCCOCCOCCOCCOCCOCCOCCOCCOCCOCCOCCOCCO)C1OCCOCCOCCOCCOCCOCCOCCOCCOCCOCCOCCOCCOCCOCCOCCOCCOCCOCCOCCOCCO (centres unmarked) [Tween 20, polyoxyethylene (20) sorbitan monolaurate] | >0.5% | wide | 0.001-0.5% |  |
